Earlier results in patent US12433928B2, “Therapeutic treatment for the coronavirus disease COVID-19” (priority 2020, dated 2025).

Test system: herpes simplex virus type 1 (HSV-1)
Settings: certain viruses, e.g. HSV-1 in vitro

## Cc1ccc(C(C)C)c(O)c1 [thymol]
  antiviral activity in medical studies: antiviral activity and effectiveness
